Source: patent publication US7449465B2, “Triazolopyrimidine derivatives as glycogen synthase kinase 3 inhibitors” (Janssen Pharmaceutica, N.V., priority 2003, dated 2008)

Columns and labels:
GSK3β = GSK3β (Homo sapiens, UniProt P49841); assay: GSK3beta assay (SPA, biotinylated phosphorylated CREB peptide, ATP-P33); format: biochemical; conditions: ranges of pIC50 (−log IC50 (M)); 1 μM ATP, room temperature, one hour; read-out: GSK3b pIC50 (converted)
Procedure: (§1) GSK3beta assays were performed at room temperature in a 100 μl reaction volume of 25 mM Tris (pH 7.4) containing 10 mM MgCl2.6H2O, 1 mM DTI, 0.1 mgiml BSA, 5% glycerol and containing 5.7 ng/μl GSK3β, 5 μM biotinylated phosphorylated CREB peptide, 1 μM ATP, 0.85 μCi/ml ATP-P^33 and a suitable amount of a test compound of formula (I). After one hour, the reaction was terminated by adding 70 μl of Stop mix (0.1 mM ATP, 5 mg/ml streptavidin coated PVT SPA bead pH 11.0). The beads to which the phosphorylated CREB peptide is attached were allowed to settle overnight and the radioactivity of the beads was counted in a microtiterplate scintillation counter and compared with the results obtained in a control experiment (without the presence of a test compound) in order to determine the percentage of GSK3β inhibition. The IC50 value, i.e. the concentration (M) of the test compound at which 50% of GSK3β is inhibited, was calculated from the dose response curve obtained by performing the above-described GSK3β assay in the presence of different amounts of the test compound.

GSK3alpha = GSK3alpha (Homo sapiens, UniProt P49840); assay: GSK3alpha assay (same as the GSK3beta assay, 0.25 ng/μl GSK3alpha); format: biochemical; conditions: ranges of pIC50 (−log IC50 (M)), 1 μM ATP, read-out: GSK3a pIC50 (converted)
Chain of GSK3alpha (P49840 whole entry, species assumed): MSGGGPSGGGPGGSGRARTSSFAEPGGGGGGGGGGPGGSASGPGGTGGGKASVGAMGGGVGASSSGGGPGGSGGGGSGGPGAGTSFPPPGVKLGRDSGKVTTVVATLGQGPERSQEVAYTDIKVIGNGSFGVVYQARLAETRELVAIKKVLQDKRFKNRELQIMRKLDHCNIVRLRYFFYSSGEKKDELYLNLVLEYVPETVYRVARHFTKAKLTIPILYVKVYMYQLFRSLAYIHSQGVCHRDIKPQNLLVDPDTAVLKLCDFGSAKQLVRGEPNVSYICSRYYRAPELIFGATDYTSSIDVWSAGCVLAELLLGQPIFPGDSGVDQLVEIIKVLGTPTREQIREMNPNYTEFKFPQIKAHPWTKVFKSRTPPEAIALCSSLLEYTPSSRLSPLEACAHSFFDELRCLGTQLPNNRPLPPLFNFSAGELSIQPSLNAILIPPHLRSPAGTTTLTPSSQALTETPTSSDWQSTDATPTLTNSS
Procedure: as §1
The GSK3alpha assay was performed in the same way as described above for the GSK3beta assay except for the concentration of GSK3alpha which is 0.25 ng/μl.

Chain of GSK3β (P49841 whole entry, species assumed): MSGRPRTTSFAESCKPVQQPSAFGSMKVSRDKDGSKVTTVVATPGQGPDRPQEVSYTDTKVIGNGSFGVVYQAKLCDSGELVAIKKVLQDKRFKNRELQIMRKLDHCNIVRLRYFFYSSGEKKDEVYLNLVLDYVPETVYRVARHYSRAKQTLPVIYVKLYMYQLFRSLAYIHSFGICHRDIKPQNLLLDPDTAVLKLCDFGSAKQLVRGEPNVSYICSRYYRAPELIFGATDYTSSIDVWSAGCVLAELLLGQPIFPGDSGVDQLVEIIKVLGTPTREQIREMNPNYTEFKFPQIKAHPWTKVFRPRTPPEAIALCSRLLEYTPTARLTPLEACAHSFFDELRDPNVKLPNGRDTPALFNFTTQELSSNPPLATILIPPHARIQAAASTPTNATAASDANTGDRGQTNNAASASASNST

| Compound | IC50 (GSK3β) [M] | IC50 (GSK3alpha) [M] |
| --- | --- | --- |
| Cn1ccnc1-c1cccc(Nc2ncc3nnn(-c4cccc(C(N)=O)c4)c3n2)c1 [Compound 7] | 1e-08 to 1e-07 | < 1e-08 |
| Brc1cccc(-n2nnc3cnc(Nc4cccc(-c5cncnc5)c4)nc32)c1 [Compound 47] | < 1e-08 | < 1e-08 |
| CN1CCN(C(=O)c2ccc(Nc3ncc4nnn(-c5cccc(CC#N)c5)c4n3)cc2)CC1 [Compound 91] | < 1e-08 | < 1e-08 |
| Cn1nnnc1-c1cccc(Nc2ncc3nnn(-c4cccc(CCO)c4)c3n2)c1 [Compound 76] | < 1e-08 | < 1e-08 |
| COc1cccc(-n2nnc3cnc(Nc4cccc(-c5nnn(C)n5)c4)nc32)c1 [Compound 18] | < 1e-08 | < 1e-08 |
| CC(C)CC(=O)NCc1cccc(-n2nnc3cnc(Nc4cccc(-c5ccnc(N)n5)c4)nc32)c1 [Compound 121] | < 1e-08 | 1e-08 |
| NC(=O)Cc1cccc(-n2nnc3cnc(Nc4cccc(-c5cnco5)c4)nc32)c1 [Compound 95] | < 1e-08 | < 1e-08 |
| CC(=O)NCc1cccc(-n2nnc3cnc(Nc4cccc(-c5nnnn5C)c4)nc32)c1 [Compound 116] | < 1e-08 | < 1e-08 |
| Fc1cccc(-n2nnc3cnc(Nc4cccc(-c5cnco5)c4)nc32)c1 [Compound 20] | < 1e-08 | < 1e-08 |
| COCc1cccc(-n2nnc3cnc(Nc4cccc(-c5cnco5)c4)nc32)c1 [Compound 98] | < 1e-08 | < 1e-08 |
| CCOC(=O)NCc1cccc(-n2nnc3cnc(Nc4cccc(-c5cnco5)c4)nc32)c1 [Compound 125] | < 1e-08 | < 1e-08 |
| OCCc1ccc(-n2nnc3cnc(Nc4ccc(N5CCOCC5)cc4)nc32)cc1 [Compound 85] | > 1e-07 | < 1e-08 |
| OCCc1cccc(-n2nnc3cnc(Nc4ccc(Nc5ncccn5)cc4)nc32)c1 [Compound 84] | < 1e-08 | < 1e-08 |
| COCc1cccc(-n2nnc3cnc(Nc4ccc(C(=O)N5CCN(C)CC5)cc4)nc32)c1 [Compound 103] | < 1e-08 | < 1e-08 |
| Cn1cnnc1-c1cccc(Nc2ncc3nnn(-c4cccc(F)c4)c3n2)c1 [Compound 26] | < 1e-08 | < 1e-08 |
| CC(C)CC(=O)NCc1cccc(-n2nnc3cnc(Nc4cccc(-c5cnco5)c4)nc32)c1 [Compound 120] | 1e-08 to 1e-07 | 1e-08 to 1e-07 |

| Compound | IC50 (GSK3β) [M] | IC50 (GSK3alpha) [M] |
| --- | --- | --- |
| NCc1cccc(-n2nnc3cnc(Nc4cccc(-c5cnco5)c4)nc32)c1 [Compound 114] | < 1e-08 | < 1e-08 |
| CNc1nccc(-c2cccc(Nc3ncc4nnn(-c5cccc(F)c5)c4n3)c2)n1 [Compound 34] | < 1e-08 | < 1e-08 |
| Cn1cc(Br)c(-c2cccc(Nc3ncc4nnn(-c5cccc(CCO)c5)c4n3)c2)n1 [Compound 152] | < 1e-08 | < 1e-08 |
| Nc1nccc(-c2cccc(Nc3ncc4nnn(-c5ccccc5)c4n3)c2)n1 [Compound 151] | < 1e-08 | < 1e-08 |
| Cn1nnc(-c2ccc(Nc3ncc4nnn(-c5cccc(Br)c5)c4n3)cc2)n1 [Compound 53] | 1e-08 to 1e-07 | < 1e-08 |
| COc1cccc(-n2nnc3cnc(Nc4cccc(-c5nnnn5C)c4)nc32)c1 [Compound 128] | < 1e-08 | < 1e-08 |
| Cn1nnc(-c2cccc(Nc3ncc4nnn(-c5cccc(F)c5)c4n3)c2)n1 [Compound 29] | < 1e-08 | < 1e-08 |
| c1ccc(-n2nnc3cnc(Nc4ccc(N5CCOCC5)cc4)nc32)cc1 [Compound 11] | 1e-08 to 1e-07 | 1e-08 to 1e-07 |
| Fc1cccc(-n2nnc3cnc(Nc4cccc(-c5nnn[nH]5)c4)nc32)c1 [Compound 27] | < 1e-08 | < 1e-08 |
| CC(=O)NCc1cccc(-n2nnc3cnc(Nc4cccc(-c5ccnc(N)n5)c4)nc32)c1 [Compound 117] | > 1e-09 | < 1e-08 |
| NS(=O)(=O)c1cccc(-n2nnc3cnc(Nc4cccc(-c5cnco5)c4)nc32)c1 [Compound 145] | < 1e-08 | < 1e-08 |
| Cn1ccnc1-c1cccc(Nc2ncc3nnn(-c4cccc(F)c4)c3n2)c1 [Compound 24] | < 1e-08 | < 1e-08 |
| O=S(=O)(NCCNc1ncccn1)c1cccc(Nc2ncc3nnn(-c4cccc(F)c4)c3n2)c1 [Compound 136] | 1e-08 to 1e-07 | 1e-08 to 1e-07 |
| Cn1nccc1-c1cccc(Nc2ncc3nnn(-c4cccc(Br)c4)c3n2)c1 [Compound 8] | > 1e-07 | < 1e-08 |
| Fc1cccc(-n2nnc3cnc(Nc4cccc(-c5ncc[nH]5)c4)nc32)c1 [Compound 149] | < 1e-08 | < 1e-08 |
| COCCOCc1cccc(-n2nnc3cnc(Nc4ccc(C(=O)NCCN5CCOCC5)cc4)nc32)c1 [Compound 112] | < 1e-08 | < 1e-08 |

Continued, values first:

| IC50 (GSK3β) [M] | IC50 (GSK3alpha) [M] | Compound |
| --- | --- | --- |
| 1e-08 | < 1e-08 | CN1CCN(CCOc2ccc(Nc3ncc4nnn(-c5cccc(CCO)c5)c4n3)cc2)CC1 [Compound 82] |
| < 1e-08 | < 1e-08 | N#CCc1cccc(-n2nnc3cnc(Nc4ccc(C(=O)NCCN5CCOCC5)cc4)nc32)c1 [Compound 92] |
| 1e-08 to 1e-07 | < 1e-08 | COCCOc1cccc(-n2nnc3cnc(Nc4ccc(C(=O)N5CCN(C)CC5)cc4)nc32)c1 [Compound 133] |
| 1e-08 to 1e-07 | 1e-08 to 1e-07 | Fc1cccc(-n2nnc3cnc(Nc4ccc(OCCCN5CCCCC5)cc4)nc32)c1 [Compound 142] |
| 1e-08 to 1e-07 | < 1e-08 | Fc1cccc(-n2nnc3cnc(Nc4ccc(OCCCN5CCOCC5)cc4)nc32)c1 [Compound 144] |
| 1e-08 to 1e-07 | 1e-08 to 1e-07 | COCCOc1cccc(-n2nnc3cnc(Nc4ccc(N5CCN(C)CC5)cc4)nc32)c1 [Compound 130] |
| 1e-08 to 1e-07 | 1e-08 | COCCOCc1cccc(-n2nnc3cnc(Nc4ccc(OCCCN5CCN(C)CC5)cc4)nc32)c1 [Compound 113] |
| 1e-08 to 1e-07 | 1e-08 to 1e-07 | CN1CCN(CCOc2ccc(Nc3ncc4nnn(-c5cccc(CC#N)c5)c4n3)cc2)CC1 [Compound 93] |
| 1e-08 to 1e-07 | 1e-08 to 1e-07 | COCc1cccc(-n2nnc3cnc(Nc4ccc(OCCN5CCN(C)CC5)cc4)nc32)c1 [Compound 105] |
| 1e-08 to 1e-07 | 1e-08 to 1e-07 | COCCOc1cccc(-n2nnc3cnc(Nc4ccc(OCCCN5CCN(C)CC5)cc4)nc32)c1 [Compound 135] |
| < 1e-08 | < 1e-08 | Fc1cccc(-n2nnc3cnc(Nc4ccc(-n5cncn5)cc4)nc32)c1 [Compound 40] |
| < 1e-08 | < 1e-08 | O=C(NCCN1CCOCC1)c1ccc(Nc2ncc3nnn(-c4cccc(CCO)c4)c3n2)cc1 [Compound 81] |
| 1e-08 to 1e-07 | 1e-08 to 1e-07 | COCCOCc1cccc(-n2nnc3cnc(Nc4ccc(CN5CCN(C)CC5)cc4)nc32)c1 [Compound 109] |
| < 1e-08 | < 1e-08 | N#CCc1cccc(-n2nnc3cnc(Nc4ccc(CN5CCC(O)CC5)cc4)nc32)c1 [Compound 90] |
| < 1e-08 | < 1e-08 | CN1CCN(c2cccc(Nc3ncc4nnn(-c5cccc(F)c5)c4n3)c2)CC1 [Compound 36] |
| 1e-08 to 1e-07 | 1e-08 to 1e-07 | COCc1cccc(-n2nnc3cnc(Nc4ccc(CN5CCC(O)CC5)cc4)nc32)c1 [Compound 102] |
| 1e-08 to 1e-07 | 1e-08 to 1e-07 | CCC(C)n1ncn(-c2ccc(Nc3ncc4nnn(-c5cccc(F)c5)c4n3)cc2)c1=O (centres unmarked) [Compound 41] |
